The values that follow come from patent US7601850B2, “Phenyl-thiophene type vitamin D receptor modulators” (Eli Lilly and Company, priority 2002, dated 2009).

One data set has as its system KERtr cells. The data set can be described thus: Keratinocyte proliferation assay (BrdU incorporation). The format is cell-based. The note with it: KERtr human skin keratinocytes, 72 hr treatment, read-out: Kera. Prolif. IC50. On the procedure:
6. The keratinocyte proliferation assay is described in the “Assay” section of the Description, infra.
5. The Keratinocyte Proliferation Assay
This Assay is indicative for the treatment of psoriasis.
(5) The Keratinocyte Proliferation Assay:
KERtr cells (Human skin keratinocyte transformed with a retrovirus vector, obtained from ATCC) were plated in 96-well flat-bottomed plates (3000 cells/well) in 100 µl keratinocyte serum free medium supplemented with bovine pituitary extract in the absence of EGF (Life Technologies, Rockville, Md.) and incubated at 37° C. for two days. The cells were treated with various concentrations of VDR ligands (ten-fold serial dilution from 10,000 nM to 0.1 nM in triplicate), dissolved in 100 µl keratinocyte serum free medium supplemented with bovine pituitary extract in the absence of EGF and incubated at 37° C. for 72 hr. […] Potency values (IC50) values were determined as the concentration (nM) of compound that elicited a half-maximal response.
(Uptake of a labelled nucleoside into DNA is a usual measure of proliferation.)

The test system of data set [1] is IL-10 production in peripheral blood mononuclear cells (PBMCs). The data set can be described thus: Human IL-10 induction assay in PBMCs. Format: cell-based. The note with it: TPA/PHA stimulated human PBMCs, IL-10 in supernatant by immunoassay. The source says: 7. The IL-10 induction assay is described in the “Assay” section of the Description, infra.
The evaluation of the novel compounds of the invention for psoriasis is done using the Keratinocyte Proliferation Assay in combination with other assays that measure inhibition of IL-2 production and stimulation of IL-10 production in peripheral blood mononuclear cells (PBMCs).
6. The IL-1 Induction Assay
This is an in vitro efficacy assay for psoriasis, abscess and adhesion. Psoriasis involves both keratinocytes and immune cells. IL-10 is a unique cytokine because it is anti-inflammatory and immunosuppressive. This assay tells us whether a VDRM is able to function as an agonist in PBMCs (primary blood mononuclear cells) or not. A lower EC50 value is desirable in this assay since a compound with a lower EC50 value will be a better agonist in PBMCs. An acceptable test result is an EC50 value of less than 200 nM.
(6) Materials and Method for Human IL-10 Induction Assay:
Isolation of peripheral blood mononuclear cells (PBMCs):
• A. Collect 50 ml of human blood and dilute with media, RPMI-1640. • B. Prepare sterile tubes with ficol. • C. Add diluted blood to tubes. • D. Centrifuge. • E. Discard the top layer and collect the cells from middle layer. • F. Divide all cells into four tubes and add media. • G. Centrifuge. • H. Aspirate off media and resuspend. • I. Collect all cells • J. Centrifuge. at 1200 rpm for 10 minutes. • K. Resuspend in RPMI-1640 with 2% FBS and count cells • Stimulation of PBMC: • L. Prepare TPA in DMSO. • M. Dissolve PHA in water. • N. Plate TPA/PHA treated PBMCs in well plates. • O. Incubate. • Treatment: • P. Prepare all compound dilutions in plain RPMI-1640 media. • Q. Add diluted compound. • R. Incubate. • Sample Collection and assay: • S. Remove all the cells by centrifugation and assay the supernatant for IL-10 by immunoassay. • 1) T. Perform IL-10 assay using anti-human IL-10 antibody coated beads, as described by the manufacturer (Linco Research Inc., St. Charles, Mo.).

The subject of another data set is rat osteocalcin promoter. Description: OCN (osteocalcin) promoter assay in RG-15 (ROS 17/2.8) cells. Format: cell-based. An outline of the steps: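 Rat osteoblast-like RG-15 (ROS 17/2.8) cells stably carry the rat osteocalcin promoter fused to luciferase. They were treated with compounds for 48 h in medium with 2% FBS and 0.01% DMSO. EC50 was derived from luciferase activity in cell lysates.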

The target of another data set is T1, RXR-VDR heterodimer (Homo sapiens, UniProt P11473).
T1 construct: Add the Gal-4-RXR-DEF and VP16-VDR-LBD; expressed in transfected cells; host or cells: SaOS-2 cells
T1 sequence (P11473 127-423 limits assumed): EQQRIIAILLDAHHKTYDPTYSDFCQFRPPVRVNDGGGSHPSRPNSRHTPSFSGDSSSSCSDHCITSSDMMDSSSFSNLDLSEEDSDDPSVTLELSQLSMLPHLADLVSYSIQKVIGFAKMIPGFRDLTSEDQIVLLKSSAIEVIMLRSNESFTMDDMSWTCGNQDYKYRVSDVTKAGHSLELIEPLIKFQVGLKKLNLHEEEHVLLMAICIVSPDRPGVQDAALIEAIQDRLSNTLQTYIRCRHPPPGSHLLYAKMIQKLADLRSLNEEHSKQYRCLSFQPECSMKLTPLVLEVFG
T1 sequence (P19793 201-462 partner limits assumed): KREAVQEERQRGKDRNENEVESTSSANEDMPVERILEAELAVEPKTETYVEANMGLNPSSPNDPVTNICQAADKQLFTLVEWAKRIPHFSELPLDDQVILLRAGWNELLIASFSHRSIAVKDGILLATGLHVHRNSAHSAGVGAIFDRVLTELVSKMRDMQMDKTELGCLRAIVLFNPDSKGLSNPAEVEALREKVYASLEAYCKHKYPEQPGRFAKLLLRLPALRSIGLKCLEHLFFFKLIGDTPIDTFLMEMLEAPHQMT
Description: RXR-VDR heterodimerization assay (SaOS-2 cells). The format is cell-based. The source says:
2. The RXR-VDR heterodimerization (SaOS-2 cells) test is described in the “Assay” section of the Description, infra.
1. The RXR-VDR heterodimerAssay:
This assay provides the VDR activity of a test compound.
(1) Materials and Method for RXR-VDR Heterodimerization Assay:
Luciferase Assay Reagent: • Use Steady-Glo Luciferase Reagent from Promega (Cat # E2550) Consists of: • a. E2533 Assay Substrate, lyopholized product and • b. […] DAY 2: Transfection Step 1: DNA and Media • Add plain DMEM media to tubes for mixing the DNA • Add the Reporter gene pFR-LUC • Add the Gal-4-RXR-DEF and VP16-VDR-LBD Step 2: FuGENE and Media • Prepare plain DMEM media in a ubes for mixing FuGENE • Add FuGENE 6 Transfection Reagent • Incubate Step 3: FuGENE, DNA and Media Complex • Add FuGENE Media complex from step 2 to DNA Media complex from step 1 • Incubate Step 4: FuGENE, DNA and Media Complex to-well plate • Add FuGENE-DNA-Media complex from step 3 to each plate • Incubate. […] Day 4: Luciferase Assay • Read the plates after drug treatment • Remove part of media from all the wells and leave remainder • Add Steady-Glo Luciferase Reagent mixture/wells • Incubate • Count each well using a Luminescence counter, Top Count NXT by Packard
Set a delay between plates to reduce the background.

The nature of data set [2]: Mouse hypercalcemia assay (six day, serum ionized calcium). Format: in vivo. The protocol:
5. The Mouse Hypercalcemia test is described in the “Assay” section of the Description, infra.
4. The Mouse Hypercalcemia Assay
The Mouse Hypercalcemia Assay is a six day hypercalcemia test for toxicity and selectivity. Acceptable test results are levels greater than 300 μg/kg/day. Preferred assay results are levels greater than 1000 μg/kg/day.
(4) Materials and Method for The Mouse Hypercalcemia Assay:
Weanling, virus-antibody-free, five to six weeks old female DBF mice (Harlan, Indianapolis, Ind.) are used for all the studies. Animals are allowed to acclimate to local vivarium conditions for 2 days. […] The animals then are divided into groups with 4-5 mice per group. Different doses of test compounds prepared in 10% Ethanol and 90% sesame oil are administered to mice orally via gavage for 6 days. 1α-25(OH)2D3 0.5 μg/kg/d was also given to one group of mice as the positive control. Serum ionized calcium is evaluated at 6 hours after the last dosing under isoflurane anesthesia by Ciba-Corning Ca++/PH Analyzer, (Model 634, Chiron Diagnostics Corp., East Walpole, Mass.). Raw data of group differences is assessed by analysis of variance (ANOVA) using Fisher's protected least significant difference (PLSD) where the significance level was P<0.05.

Where [3] appears, read: Homo sapiens, Keratinocyte, 72 h.

Read-outs that look alike come from different tables or passages of the source.

With `CCC(CC)(c1ccc(OS(C)(=O)=O)c(C)c1)c1cc(C)c(CCC(O)C(C)(C)C)s1` (single isomer, unassigned) [Ex. 19A], the IC50 – broadly, the concentration that gives 50% inhibition – came to 18 nM in the data set on KERtr cells (setting [3]) and 60 nM in data set [1] (Homo sapiens, PBMC).

On to `CCC(CC)(c1ccc(CCC(=O)O)c(C)c1)c1cc(C)c(CCC(O)C(C)(C)C)s1` (single isomer, unassigned) [Ex. 30B], for which the IC50 in data set [1] (Homo sapiens, PBMC) came out at 120 nM.

On to `CCc1cc(C(CC)(CC)c2ccc(C(=O)O)s2)ccc1OCC(O)C(C)(C)C` (single isomer, unassigned) [Ex. 101, 3′-[4-(2-hydroxy-3,3-dimethylbutoxy)-3-ethylphenyl]-3′-[5-carboxy-thiophen-2-yl]pentane], for which the EC50 (commonly the midpoint of the concentration-response curve) with rat osteocalcin promoter turned out to be 29.4 nM; on RXR-VDR heterodimer it was 379 nM. Moreover, the “Mouse Hypercal” value in data set [2] is 12000 µg/kg/day.

For `CCc1cc(C(CC)(CC)c2ccc(C(=O)O)s2)ccc1OCC(C)(O)C(C)(C)C` (single isomer, unassigned) [Ex. 108, 3′-[4-(2-hydroxy-2,3,3-trimethylbutoxy)-3-ethylphenyl]-3′-[5-carboxy-thiophen-2-yl]pentane], the EC50 in the data set with rat osteocalcin promoter (Rattus norvegicus) came out at 5.25 nM. The IC50 is 66 nM with KERtr cells (setting [3]) and 597 nM in data set [1] (Homo sapiens, PBMC). In addition, in data set [2], the “Mouse Hypercal” value was 300 µg/kg/day.

On to `CCc1cc(C(CC)(CC)c2ccc(C(=O)N[C@@H](C)C(=O)O)s2)ccc1OCC(C)(O)C(C)(C)C` (single isomer, unassigned) [Ex. 110, d-3′-[4-(2-hydroxy-2,3,3-trimethylbutoxy)-3-ethylphenyl]-3′-[5-(carboxy-1-ethylamino)carbonyl-thiophen-2-yl]pentane], for which the EC50 in the data set on rat osteocalcin promoter (Rattus norvegicus) came to 0.225 nM. Further, the IC50 in the data set on KERtr cells (setting [3]) amounted to 9.5 nM; in data set [1] (Homo sapiens, PBMC), 288 nM. Also, the “Mouse Hypercal” value in data set [2] is less than 300 µg/kg/day.

Turning to `CCCc1cc(C(CC)(CC)c2ccc(C(=O)O)s2)ccc1OCC(C)(O)C(C)(C)C` (single isomer, unassigned) [Ex. 113, 3′-[4-(2-hydroxy-2,3,3-trimethylbutoxy)-3-n-propylphenyl]-3′-[5-carboxy-thiophen-2-yl]pentane], the EC50 came to 118 nM with rat osteocalcin promoter and 542 nM at RXR-VDR heterodimer.

With `CCC(CC)(c1ccc(OCC(C)(O)C(C)(C)C)c(OC)c1)c1ccc(C(=O)N[C@H](C)C(=O)O)s1` (single isomer, unassigned) [Ex. 117, d-3′-[4-(2-hydroxy-2,3,3-trimethylbutoxy)-3-methoxyphenyl]-3′-[5-(carboxy-1-ethylamino)carbonyl-thiophen-2-yl]pentane], the values for the concentration for a half-maximal effect (EC50) with rat osteocalcin promoter and at RXR-VDR heterodimer were 101 nM and 2210 nM, respectively.

For the molecule `CCC(CC)(c1ccc(OCC(O)C(C)(C)C)c(C)c1)c1ccc(S(=O)(=O)NCC(=O)OC)s1` (single isomer, unassigned) [Ex. 152], the EC50 in the data set on rat osteocalcin promoter (Rattus norvegicus) was determined as 110 nM; at RXR-VDR heterodimer it was 474 nM.

`C=C1/C(=C\C=C2/CCC[C@]3(C)[C@@H]([C@H](C)CCCC(C)(C)O)CC[C@@H]23)C[C@@H](O)C[C@@H]1O` [AA, 1α,25-dihydroxyvitamin D3, reference compound]: the EC50 in the data set on rat osteocalcin promoter was 5 nM. Also, in data set [1], the IC50 was found to be 1.2 nM. Also, in data set [2], the “Mouse Hypercal” value is 0.06 µg/kg/day.

As to `CCC(CC)(c1ccc(OCC(=O)C(C)(C)C)c(C)c1)c1cc(C)c(CS(C)(=O)=O)s1` [Ex. 9], the EC50 in the data set on rat osteocalcin promoter (Rattus norvegicus) came to 46.6 nM. Further, the IC50 in the data set with KERtr cells (setting [3]) stood at 129 nM; in data set [1] (Homo sapiens, PBMC), 98 nM.

As for `CCC(CC)(c1ccc(OCC(O)C(C)(C)C)c(C)c1)c1cc(C)c(C(=O)N[C@@H](C)C(=O)O)s1` (stereo partly drawn) [Ex. 65, L-2-[(5-{1-Ethyl-1-[4-(2-hydroxy-3,3-dimethyl-butoxy)-3-methyl-phenyl]-propyl}-3-methyl-thiophene-2-carbonyl)-amino]-propionic acid], the EC50 in the data set with rat osteocalcin promoter stood at 3.4 nM. The IC50 with KERtr cells came to 56 nM; in data set [1] (Homo sapiens, PBMC), 41 nM. Also, in data set [2], the “Mouse Hypercal” value was 300 µg/kg/day.

As for `CCC(CC)(c1ccc(OCC(O)C(C)(C)C)c(C)c1)c1cc(C)c(S(=O)(=O)NCC(=O)O)s1` (stereo not drawn) [Ex. 138], the IC50 with KERtr cells (setting [3]) was 102 nM; in data set [1] (Homo sapiens, PBMC), 110 nM.

In the case of `CCC(CC)(c1ccc(OCC(O)C(C)(C)C)c(C)c1)c1cc(C)c(-c2n[nH]c(=O)o2)s1` (stereo not drawn) [Ex. 170], in data set [1] (Homo sapiens, PBMC), the IC50 was 100 nM.
